From PMC6150270, “Solvent and Copper Ion-Induced Synthesis of Pyridyl–Pyrazole-3-One Derivatives: Crystal Structure, Cytotoxicity” (Molecules : A Journal of Synthetic Chemistry and Natural …, 2017)

Tests used:
BEL-7404 tumor cell line = assay: MTT cytotoxicity assay, BEL-7404; type: cell-based, human; details: for IC50: 48 h, MTT, mean ± SD; for inhibition at 20 µM: read-out: Inhibition rate BEL-7404
Experimental: (§1) The cytotoxicities of compounds 1–5 against the human tumor cell lines BEL-7404, HepG2, NCI-H460, T-24 and A549, as well as human normal liver cell line HL-7702, were tested by the MTT assay. Cisplatin was also tested for comparison.
(§2) All the cells were maintained in DMEM (Dulbecco’s Modified Eagle Medium) supplemented with 10% fetal calf serum, 100 units/mL ampicillin and […] streptomycin sulfate at 37 °C in a humidified atmosphere under 5% CO2. Compounds 1–5 were dissolved in DMSO at a concentration of 2.0 mM stock solution. The stock was diluted by PBS to the required concentration immediately before use.
(§3) Cisplatin was prepared according to a literature procedure. The cells were all grown in 96-well, flat-bottomed microtiter plates. Compounds 1–5 and cisplatin were dissolved in the culture medium (containing 1% DMSO) to a concentration of 100 μg/mL. The resultant solutions were subsequently added to a set of wells. The wells for control contained the supplemented medium with 1% DMSO. The microtiter plates were incubated at 37 °C in a humidified atmosphere of 5% CO2/95% air for a further 48 h. At the end of each incubation period, the 3-(4,5-dimethylthiazol-2-yl)-2,5-diphenyltetrazolium bromide (MTT) solution (10 μL, 5 mg/mL) was added into each well and the cultures were further incubated for 6 h under the same conditions. After the removal of the supernatant, DMSO (100 μL) was added to dissolve the formazan crystals. The absorbance of the solution was read by an enzyme-labeled microplate reader with 490/630 nm double wavelength measurement. The cytotoxicity was evaluated based on the percentage of cell survival in a dose-dependent manner relative to the negative control. The final IC50 values were calculated by the Bliss method (n = 5). All tests were repeated in at least three independent trials.

HepG2 tumor cell line = assay: MTT cytotoxicity assay, HepG2; type: cell-based, human; details: for IC50 / inhibition at 20 µM: Homo sapiens, HepG2; for IC50: 48 h, mean ± SD; for IC50 / Growth inhibition on HepG2 cell lines (in words): MTT; for inhibition at 20 µM: read-out: Inhibition rate HepG2; for Cytotoxicity toward HepG2 enhanced compared with normal liver cell HL-7702: ratio of IC50 HL-7702 to IC50 HepG2
Experimental: as §1, §2, §3

NCI-H460 tumor cell line = assay: MTT cytotoxicity assay, NCI-H460; type: cell-based, human; details: for IC50: 48 h, MTT, mean ± SD; for inhibition at 20 µM: read-out: Inhibition rate NCI-H460
Experimental: as §1, §2, §3

T-24 tumor cell line = assay: MTT cytotoxicity assay, T-24; type: cell-based, human; details: for IC50: 48 h, MTT, mean ± SD; for inhibition at 20 µM: read-out: Inhibition rate T-24
Experimental: as §1, §2, §3

A549 tumor cell line = assay: MTT cytotoxicity assay, A549; type: cell-based; details: Homo sapiens; for IC50: 48 h, MTT, mean ± SD; for inhibition at 20 µM: complexes 1-5 at 20 μM, incubation 48 h, read-out: Inhibition rate A549
Experimental: as §1, §2, §3

[1] = system: normal liver cell line HL-7702; assay: MTT cytotoxicity assay, HL-7702; type: cell-based, human; details: normal liver cells; for IC50: 48 h, MTT, mean ± SD; for inhibition at 20 µM: read-out: Inhibition rate HL-7702
Experimental: as §1, §2, §3

[2] = Homo sapiens, BEL-7404, complexes 1-5 at 20 μM, incubation 48 h
[3] = complexes 1-5 at 20 μM, incubation 48 h
[4] = Homo sapiens, NCI-H460, complexes 1-5 at 20 μM, incubation 48 h
[5] = Homo sapiens, complexes 1-5 at 20 μM, incubation 48 h
[6] = Homo sapiens, L02, complexes 1-5 at 20 μM, incubation 48 h

COC(=O)C1=NN(c2cccc(Br)n2)C(=O)C1(c1c(C(=O)OC)nn(-c2cccc(Br)n2)c1O)c1c(C(=O)OC)nn(-c2cccc(Br)n2)c1O [Compound 3, Trimethyl 1,1′,1′′-tris(6-bromo-2-pyridinyl)-5,5′′-dihydroxy-5′-oxo-1′,5′-dihydro-1H,1′′H-4,4′: 4′,4′′-terpyrazole-3,3′,3′′-tricarboxylate]
IC50 (BEL-7404 tumor cell line; Homo sapiens, BEL-7404): 112 ± 2.78 µM
inhibition at 20 µM (BEL-7404 tumor cell line; [2]): 24.6 ± 0.75%
IC50 (HepG2 tumor cell line): 54.7 ± 0.81 µM
inhibition at 20 µM (HepG2 tumor cell line; [3]): 41 ± 1.27%
Cytotoxicity toward HepG2 enhanced compared with normal liver cell HL-7702 (HepG2 tumor cell line): 2.76 times
IC50 (NCI-H460 tumor cell line; Homo sapiens, NCI-H460): 38 ± 0.89 µM
inhibition at 20 µM (NCI-H460 tumor cell line; [4]): 42.5 ± 2.27%
IC50 (T-24 tumor cell line; Homo sapiens): 85.38 ± 0.67 µM
inhibition at 20 µM (T-24 tumor cell line; [5]): 32 ± 0.89%
IC50 (A549 tumor cell line): 33.6 ± 1.07 µM
inhibition at 20 µM (A549 tumor cell line): 33.3 ± 2.51%
IC50 ([1]; Homo sapiens, L02): 151 ± 3.06 µM
inhibition at 20 µM [1, 6]: 22.2 ± 1.05%

N.N.[Cl][Pt][Cl] [Cisplatin, reference compound]
IC50 (BEL-7404 tumor cell line): 12.4 ± 0.38 µM
Inhibition rate BEL-7404 (BEL-7404 tumor cell line; [3]): 55.15±1.18
Inhibition rate HepG2 (HepG2 tumor cell line; [3]): 60.63±0.99
IC50 (NCI-H460 tumor cell line): 18.9 ± 1.02 µM
Inhibition rate NCI-H460 (NCI-H460 tumor cell line; [3]): 50.88±3.69
IC50 (T-24 tumor cell line): 28.1 ± 1.88 µM
Inhibition rate T-24 (T-24 tumor cell line; [3]): 47.58±2.65
IC50 [1]: 5.63 ± 0.32 µM
Inhibition rate HL-7702 [1, 3]: 73.58±2.30

COC(=O)C1=NN(c2cccc(Br)n2)C2(C(C(=O)O)=NN(c3cccc(Br)n3)C2O)C1(C(=O)OC)c1c(C(=O)OC)nn(-c2cccc(Br)n2)c1O (stereo not shown) [Compound 5, 1,8-Bis(6-bromopyridin-2-yl)-4-(1-(6-bromopyridin-2-yl)-5-hydroxy-3-(methoxycarbonyl)-1H-pyrazol-4-yl)-9-hydroxy-3,4-bis(methoxycarbonyl)-1,2,7,8-tetraazaspiro[4.4]nona-2,6-diene-6-carboxylic acid]
IC50 (BEL-7404 tumor cell line; Homo sapiens, BEL-7404): 84.3 ± 1.01 µM
inhibition at 20 µM (BEL-7404 tumor cell line; [2]): 27.2 ± 0.94%
IC50 (HepG2 tumor cell line): 175.2 ± 1.1 µM
inhibition at 20 µM (HepG2 tumor cell line; [3]): 19.5 ± 1.05%
IC50 (NCI-H460 tumor cell line; Homo sapiens, NCI-H460): 94.56 ± 0.41 µM
inhibition at 20 µM (NCI-H460 tumor cell line; [4]): 25.4 ± 0.34%
IC50 (T-24 tumor cell line; Homo sapiens): 76 ± 1.16 µM
inhibition at 20 µM (T-24 tumor cell line; [5]): 35.9 ± 1.26%
IC50 (A549 tumor cell line): 77.56 ± 0.72 µM
inhibition at 20 µM (A549 tumor cell line): 29.4 ± 0.65%
IC50 ([1]; Homo sapiens, L02): 102.3 ± 0.85 µM
inhibition at 20 µM [1, 6]: 26.9 ± 0.79%

COC(=O)c1cc(O)n(-c2cccc(Br)n2)n1 [Compound 2, Methyl 1-(6-bromo-2-pyridinyl)-5-hydroxy-1H-pyrazole-3-carboxylate]
IC50 (BEL-7404 tumor cell line; Homo sapiens, BEL-7404): 125 ± 1.87 µM
inhibition at 20 µM (BEL-7404 tumor cell line; [2]): 20.2 ± 1.18%
IC50 (HepG2 tumor cell line): 29.8 ± 0.91 µM
inhibition at 20 µM (HepG2 tumor cell line; [3]): 43 ± 0.74%
Growth inhibition on HepG2 cell lines (in words) (HepG2 tumor cell line): weakly growth inhibition
Cytotoxicity toward HepG2 enhanced compared with normal liver cell HL-7702 (HepG2 tumor cell line): 3.98 times
IC50 (NCI-H460 tumor cell line; Homo sapiens, NCI-H460): 40.7 ± 0.54 µM
inhibition at 20 µM (NCI-H460 tumor cell line; [4]): 38 ± 0.62%
IC50 (T-24 tumor cell line; Homo sapiens): 46.2 ± 0.87 µM
inhibition at 20 µM (T-24 tumor cell line; [5]): 42.5 ± 0.96%
IC50 (A549 tumor cell line): 44.8 ± 1.12 µM
inhibition at 20 µM (A549 tumor cell line): 22.4 ± 1.74%
IC50 ([1]; Homo sapiens, L02): 118 ± 3.34 µM
inhibition at 20 µM [1, 6]: 24.7 ± 0.59%

COC(=O)C1=NN(c2cccc(Br)n2)C2(C(C(=O)OC)=NN(c3cccc(Br)n3)C2O)C1(C(=O)OC)c1c(C(=O)OC)nn(-c2cccc(Br)n2)c1O (stereo not shown) [Compound 4, Trimethyl-1,8-bis(6-bromopyridin-2-yl)-4-(1-(6-bromopyridin-2-yl)-5-hydroxy-3-(methoxycarbonyl)-1H-pyrazol-4-yl)-9-hydroxy-1,2,7,8-tetraazaspiro[4.4]nona-2,6-diene-3,4,6-tricarboxylate]
IC50 (BEL-7404 tumor cell line; Homo sapiens, BEL-7404): 41.81 ± 0.37 µM
inhibition at 20 µM (BEL-7404 tumor cell line; [2]): 39.6 ± 1.43%
IC50 (HepG2 tumor cell line): 10.7 ± 0.38 µM
inhibition at 20 µM (HepG2 tumor cell line; [3]): 53.3 ± 0.92%
Increase in HepG2 cytotoxicity compared to the free ligand 5 (HepG2 tumor cell line; IC50 of 5 relative to IC50 of 4, HepG2): approximately 16.44 fold
Cytotoxicity toward HepG2 enhanced compared with normal liver cell HL-7702 (HepG2 tumor cell line): 9.02 times
IC50 (NCI-H460 tumor cell line; Homo sapiens, NCI-H460): 66.48 ± 0.57 µM
inhibition at 20 µM (NCI-H460 tumor cell line; [4]): 33.6 ± 1.38%
IC50 (T-24 tumor cell line; Homo sapiens): 42.9 ± 1.41 µM
inhibition at 20 µM (T-24 tumor cell line; [5]): 43.2 ± 1.15%
IC50 (A549 tumor cell line): 28.1 ± 1.01 µM
inhibition at 20 µM (A549 tumor cell line): 40.2 ± 0.44%
IC50 ([1]; Homo sapiens, L02): 96.14 ± 0.49 µM
inhibition at 20 µM [1, 6]: 35.1 ± 1.34%

COC(=O)c1cc(OC(C)=O)n(-c2cccc(Br)n2)n1 [Compound 1, Methyl 5-(acetyloxy)-1-(6-bromo-2-pyridinyl)-1H-pyrazole-3-carboxylate]
IC50 (BEL-7404 tumor cell line; Homo sapiens, BEL-7404): 66.5 ± 1.13 µM
inhibition at 20 µM (BEL-7404 tumor cell line; [2]): 38.2 ± 1.99%
IC50 (HepG2 tumor cell line): 37.1 ± 0.54 µM
inhibition at 20 µM (HepG2 tumor cell line; [3]): 47.21 ± 0.44%
Growth inhibition on HepG2 cell lines (in words) (HepG2 tumor cell line): weakly growth inhibition
Cytotoxicity toward HepG2 enhanced compared with normal liver cell HL-7702 (HepG2 tumor cell line): 2.98 times
IC50 (NCI-H460 tumor cell line; Homo sapiens, NCI-H460): 109 ± 1.65 µM
inhibition at 20 µM (NCI-H460 tumor cell line; [4]): 34 ± 1.76%
IC50 (T-24 tumor cell line; Homo sapiens): 70.5 ± 1.33 µM
inhibition at 20 µM (T-24 tumor cell line; [5]): 37.6 ± 1.72%
IC50 (A549 tumor cell line): 37.6 ± 1.03 µM
inhibition at 20 µM (A549 tumor cell line): 31.1 ± 1.39%
IC50 ([1]; Homo sapiens, L02): 111 ± 2.84 µM
inhibition at 20 µM [1, 6]: 26.5 ± 0.42%
